# According to US12377067B2, “Methods of treating PAH with combinations of ralinepag and other agents” (Arena Pharmaceuticals, Inc., priority 2016, dated 2025):
# How the values were obtained:
# [1] = tested on: human PASMCs from PAH patients; assay: Cyclic AMP assay; type: cell-based; conditions: cyclic AMP assay
# Procedure: Human PASMCs from PAH patients were grown to 70-80% confluence in 12 well plates in DMEM/F12 containing 9% foetal bovine serum (FBS), penicillin (50 U/ml)/streptomycin (50 ag/ml). To assess the time-course of cAMP elevation, cells were stimulated with 100 nM ralinepag for varying times (0.5, 1, 2, 4, 8, 24, 48 hours). This dose of ralinepag was chosen on the basis that it was close to the EC50 for cAMP generation in preliminary experiments. In other experiments, the IP receptor agonist was added for a specified time (60 minutes) over a full concentration range (0.1-10,000 nM) in the absence and presence of […] of the IP receptor antagonist, RO-1138452. The antagonist is added 30 minutes beforehand and remained throughout.
# To extract cyclic AMP, the medium was aspirated and PASMCs cells incubated in 0.1 M HCl for 20 minutes on ice followed by centrifugation at 1000 g for 10 minutes at 4° C. The protein concentration in the supernatant was determined using a […] protein assay (BCA, Novagen, EmD Chemicals, CA, USA). Intracellular cyclic AMP was measured using a competitive enzyme immunoassay 96 well plate kit (ADI-900-163, Enzo Life Sciences, Exeter, UK) and the assay performed according to the manufacturer's instructions. Each sample was run in duplicate and data expressed as pmol of cAMP per mg of total protein for each individual sample. Basal levels were subtracted from each agonist concentration data point. Given the large variation (˜15-fold) in cAMP generation from different patient samples, data was also normalized to the peak cyclic AMP response (assigned 100%) in each cell isolate.
# human IP receptor = human IP receptor (Homo sapiens, UniProt P43119); conditions: cited from earlier work
# [2] = tested on: human PASMCs from PAH patients; assay: Cell proliferation assay (MTS), serum-induced growth; type: cell-based; conditions: for IP receptor dependence of the effect: cyclic AMP and cell proliferation assays in human PASMCs from PAH patients; for inhibition of serum-induced growth (significance) / inhibition at 0.1 µM: drug alone at 100 nM; for inhibition of serum-induced growth (significance): compared to serum and DMSO alone; for inhibition at 0.1 µM: Homo sapiens, PASMC, 96 h, compared to FBS and DMSO, 4 days
# Procedure: Primary cell lines of distal PASMCs from PAH patients were derived from explanted lungs as previously described (Falcetti et al., 2010; Bubb et al., 2014). These cells have an abnormal proliferative capacity when grown in culture (Zhang et al., 2007; Falcetti et al., 2010). Frozen cells were revived and grown in human smooth muscle basal medium-2 (SMBM; Lonza, Slough, UK) supplemented with 9% fetal bovine serum (FBS) at 37° C. in a humidified atmosphere of 5% CO2. After reaching confluence, cells were washed with phosphate-buffered saline (PBS) and treated with trypsin-EDTA for further passage. Only cells between passages 3 and 10 were used for experiments.
# Comparative concentration-dependent effects of IP receptor agonists on cell proliferation were assessed on human PASMCs derived from PAH patients. Cells were seeded onto 96-well plates at a density of 1×10^4 cells/ml and grown at 37° C. in a humidified CO2 incubator in human smooth muscle basal medium-2 (SMBM; Lonza) containing 9% FBS and penicillin-streptomycin (Pen/Strep; 50 units/ml). After 24 hours, cells were growth arrested by incubating for 48 hours in fresh media containing no added serum. Media was then subsequently removed, replaced with human SMBM containing 9% serum with or without 0.1% DMSO in the absence and presence of the IP receptor agonist (either ralinepag, iloprost, treprostinil or MRE-269) and cells treated with the IP receptor agonist for 4 days over the concentration range ([…]). Responses were directly compared in cells containing the IP receptor antagonist, RO-1138452 (1 μM), which was added to cells 30-60 minutes prior to the addition of the IP agonist and remained throughout the experiment. Cells incubated with no added serum over the same time period (4 days) acted as the time control.
# Cell proliferation was obtained using an MTS proliferation kit (Promega), a colorimetric method for determining the number of viable cells which is based on the cleavage of the tetrazolium salt MTS to formazan by cellular mitochondrial dehydrogenases. An increase in cell number leads to a proportional increase in the amount of formazan dye formed which is quantified by measuring the absorbance of the dye solution at 490 nm. In each case background absorbance was corrected by subtracting the average absorbance from the “no cell” control wells from all other absorbance values.
# Cell proliferation was then normalized to the growth response induced by FBS alone, which was taken as the FBS response minus the time control (=100% growth at 4 days). Growth responses induced in presence of solvent±drugs is shown as % change in cell proliferation relative to the FBS response alone in all figures.
# All data are presented as mean±standard error of mean (S.E.M) of at least 5 observations. Agonist log-concentration curves were constructed and fitted using the non-linear fitting routine in GraphPad Prism 4 or 6 (San Diego, Calif., USA). The concentration of agonist causing 50% of the maximal response (Emax) was expressed as the negative log (pEC50) and the mean EC50 calculated. P values <0.05 are considered statistically significant.
# PDE1 = conditions: cited from earlier work
# human IP receptor, sequence (P43119 whole entry): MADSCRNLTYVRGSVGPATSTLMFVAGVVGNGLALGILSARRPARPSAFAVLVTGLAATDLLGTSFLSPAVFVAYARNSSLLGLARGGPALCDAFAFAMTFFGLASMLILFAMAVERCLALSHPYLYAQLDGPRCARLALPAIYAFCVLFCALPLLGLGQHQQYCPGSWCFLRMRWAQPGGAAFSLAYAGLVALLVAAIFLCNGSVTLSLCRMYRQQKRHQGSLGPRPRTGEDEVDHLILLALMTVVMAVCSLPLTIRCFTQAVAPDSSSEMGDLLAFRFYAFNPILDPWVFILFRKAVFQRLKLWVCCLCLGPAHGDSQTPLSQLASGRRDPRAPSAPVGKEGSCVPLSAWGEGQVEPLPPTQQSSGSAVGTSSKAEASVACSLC
smiles,measurement,setting,value
"CC(C)N(CCCCOCC(=O)O)c1cnc(-c2ccccc2)c(-c2ccccc2)n1 [MRE-269, [4[(5,6diphenylpyrazinyl)(1methylethyl)amino]butoxy]acetic acid, reference compound]",maximal effect compared with treprostinil,[1],weaker maximal effects
same,Ki,human IP receptor,20 nM
same,maximal effect compared with treprostinil,[2]; cell proliferation assay,weaker maximal effects
same,IP receptor dependence of the effect,[2],selective IP receptor agonists
"COc1ccccc1Oc1c(NS(=O)(=O)c2ccc(C(C)(C)C)cc2)nc(-c2ncccn2)nc1OCCO [bosentan, reference compound]",inhibition of serum-induced growth (significance),[2],did not cause a significant inhibition
"CC#CCC(C)[C@H](O)/C=C/[C@@H]1[C@H]2C/C(=C/CCCC(=O)O)C[C@H]2C[C@H]1O (some centres unmarked) [iloprost, reference compound]",IP receptor dependence of the effect,[2],IP-independent mechanisms
"CCCNS(=O)(=O)Nc1ncnc(OCCOc2ncc(Br)cn2)c1-c1ccc(Br)cc1 [macitentan, reference compound]",inhibition at 0.1 µM,[2],~12%
"COC(=O)N(C)c1c(N)nc(-c2nn(Cc3ccccc3F)c3ncccc23)nc1N [riociguat, reference compound]",inhibition at 0.1 µM,[2],~15%
"CC(C)N(CCCCOCC(=O)NS(C)(=O)=O)c1cnc(-c2ccccc2)c(-c2ccccc2)n1 [selexipag, 2-{4-[(5,6-diphenylpyrazin-2-yl)(propan-2-yl)amino]butoxy}-N-(methanesulfonyl)acetamide]",Ki,human IP receptor,260 nM
"CCCc1nn(C)c2c(=O)[nH]c(-c3cc(S(=O)(=O)N4CCN(C)CC4)ccc3OCC)nc12 [sildenafil, reference compound]",Ki,PDE1,40 nM
same,inhibition of serum-induced growth (significance),[2],did not significantly inhibit growth
"CCCCC[C@H](O)CC[C@@H]1[C@H]2Cc3cccc(OCC(=O)O)c3C[C@H]2C[C@H]1O [treprostinil, reference compound]",antiproliferative response in the presence of an IP receptor antagonist,[2]; IP receptor antagonist RO-1138452 (1 μM),only weakly inhibited
same,IP receptor dependence of the effect,[2],IP-independent mechanisms
same,inhibition of serum-induced growth (significance),[2],significantly inhibited growth
